Results from US9393204B2, “Methods and compositions employing bicifadine for treating disability or functional impairment associated with acute pain, chronic pain, or neuropathic disorders” (EBI Life Sciences, Inc., priority 2002, dated 2016).
“Also recorded” adds a separate entry of the source. Where a name gives a salt, the structure may show the parent alone.

What was measured:
[1] = Pharmacokinetics of bicifadine SR tablets in acute dental pain study; assay type: in vivo, human; settings: 90 patients
Protocol: (§1) Healthy adult male and female human subjects who underwent surgical extraction of two or more impacted third molars were enrolled in the study. Following cessation of the local anesthetic effect and onset of pain of at least 40 mm intensity on the 100 mm VAS, patients were randomized to into 1 of the 5 treatment arms (n˜108 per arm) and remained in the clinic for the subsequent 12 hours of the study. The study subjects were randomized to receive either a single dose of: 200 mg, 400 mg or 600 mg bicifadine SR tablets, Tramadol 100 mg, or Placebo. Analgesia ratings were obtained over a 12 h post-dosing period. Rescue medication (acetaminophen) was available, but no analgesia measures were taken after the use of rescue medication by a given patient. A subset of 150 patients provided blood samples at 0.5 hr and hourly intervals following dosing with study medication for the purpose of determining bicifadine levels (n=90).
Plasma time course profiles were determined in a subset of 30 subjects (15 male/15 female) from each treatment group.

[2] = test system: post-operative dental pain; assay: Analgesic efficacy of bicifadine SR tablets in post-operative dental pain study; assay type: in vivo, human
Protocol: These conclusions are further substantiated by the use of rescue medication by subjects in the Stem et al. acute dental pain studies. Table 5 below summarizes information on the use of rescue medication for patients who took rescue medication among the various treatment groups in the clinical trial reported by Stern et al. (id.) A nonparametric analysis (Median Test) was conducted to evaluate the median latency to rescue medication.
Survival analysis (Kaplan-Meier method, 95% confidence) was performed to compare the treatment groups with regard to time-to-rescue medication. […] The analysis yielded a statistically significant difference among the treatment groups (Log-Rank test, Chi-square=26.9, df=4, P=0.0001).
as §1
The main efficacy endpoints utilized in the overall study (n˜540) were the individual assessment of Pain Severity and Pain Relief scores at a given time point; the derived scores (PID, PRID, SPID, SPRID, TOTPAR), and the global improvement. The last observation carried forward (LOCF) approach was used to estimate change over time for those patients who used rescue medication. For the full study efficacy evaluations, one-way analysis of covariance with baseline pain severity as a covariate was applied. The global tests which included all treatment arms were followed by post-hoc comparisons of the individual treatment arms vs. placebo.
The relationship between mean pain relief ratings (PRR) and mean plasma bicifadine levels was determined at three exemplary plasma level ranges: between 0-500 ng/ml, 500-1000 ng/ml, and >1000 ng/ml, respectively. A clear positive relationship was observed across 3 ranges of bicifadine levels. In particular, bicifadine plasma concentrations in the >1000 ng/ml range were associated with a PR score approximately 3 times as high as plasma concentrations in the 0-500 ng/ml range (p<0.001, Hierarchical Linear Model analysis).
The probability of treatment response as a function of bicifadine blood concentration levels was also determined. Association between the probability of treatment response and bicifadine blood concentration levels was investigated with the widely known Generalized Estimating Equation (GEE) approach. For the purpose of the GEE analyses described here, bicifadine blood concentration was treated as a continuous independent (predictor) variable. Treatment (analgesic) response served as a dichotomous (yes, no) dependent variable in the GEE model. In particular, treatment response for each individual patient for each of the time points was defined as a Pain Relief Rating of 3 or more (range 0-4).

[3] = test system: chronic low back pain (CLBP); assay: Chronic low back pain (CLBP) study, bi-daily dosing; assay type: in vivo, human
Protocol: The present study evaluated the therapeutic efficacy of a reduced dosing regimen employing bicifadine in a bi-daily (BID) dosing protocol to treat chronic low back pain (CLBP). More than 800 study subjects were recruited in this study, and a subset of these subjects was administered 400 mg of a sustained release oral dosage form (formula M; example 15) of bicifadine BID to evaluate the long-term analgesic efficacy of bicifadine for treating CLBP. […] The following outcome measures were assessed in the study:
Inclusion criteria for study subjects, as selected for other studies herein, included the following: Subjects were at least 18 years of age. If subject was female and of childbearing potential, the subject had to have a negative serum pregnancy test during the screening period. Subjects were required to have […] during the screening period.
Other exclusionary criteria in this study included: Low back pain due to acute fracture, infection, severe osteoporosis, malignancy, marked scoliosis, or severe congenital malformation such as spina bifida; Receipt of an epidural injection of corticosteroid in the lower back within 1 month prior to the baseline visit; Use of any antidepressant for pain or sleep (including SSRIs or SNRIs), anti-epileptic, or muscle relaxant, or receipt of transcutaneous electrical nerve stimulation, chiropractic adjustment, or acupuncture within 3 weeks prior to the baseline visit; Use of any antidepressant (including SSRIs or SNRIs) for depression within 3 months prior to the baseline visit; Use of any opioid analgesic or benzodiazepine (or other sedative-hypnotic) within 2 weeks prior to the baseline visit; Use of any NSAID (except aspirin<81 mg per day or <325 mg every other day for cardiac prophylaxis and except ibuprofen) or any non-opioid analgesic (except acetaminophen) within 1 week, or acetaminophen or ibuprofen within 60 hours, prior to the baseline visit; Active malignancy of any type or history of a malignancy within 5 years prior to the first dose of study medication (patients with treated localized basal or squamous cell carcinoma of the skin within 5 years are permitted); Active GI disease (including any GI surgery that, in the Investigator's opinion, would interfere with the absorption of the study medication), or a chronic or acute renal or hepatic disorder; Mental instability, known substance abuse, history of clinically significant depression or alcoholism, or incapacity of being compliant with the requirements of the study; Any clinically significant cardiovascular, renal, endocrine, hepatic, immunologic, respiratory, neurologic, gastrointestinal, psychiatric, or hematologic disease, or any underlying serious medical condition that would preclude patient's participation in the study; and, other standard, relevant exclusion criteria.
Patients who qualified for enrollment into the study completed the PSR test, Roland-Morris Disability Questionnaire, Short Form McGill Pain Questionnaire (SF-MPQ) and the SF-36 quality of life survey at the baseline visit and at various time points throughout the study.
Study subjects were randomized on a 25:6 basis to receive either bicifadine 400 mg BID or SOC treatment, respectively. SOC treatment was provided as any appropriate pharmacological analgesic treatment selected by the investigator based on the subjects' baseline and ongoing presentation. Subjects were permitted to reduce the dose for tolerability reasons, first to bicifadine 300 mg BID, and then, if necessary, to bicifadine 200 mg BID.
Summary statistics, including observed means and standard deviations along with mean change from baseline were summarized by visit for each outcome measure. Incidence of discontinuation due to lack of efficacy and its 95% confidence interval were likewise calculated. The median and its 95% confidence interval and a Kaplan-Meier plot were provided for Time to Discontinuation due to lack of efficacy and other reasons. […]

neuropathic pain = assay: Spinal nerve ligation (Chung) model; settings: in vivo
acute pain = assay: Acute pain studies (acute dental pain and bunionectomy pain); assay type: in vivo, human; settings: unit doses of about 200 mg, 400 mg or 600 mg
acute inflammatory pain = settings: animal model of acute inflammatory pain; cited from earlier work
[4] = test system: acute, nociceptive pain following dental surgery; settings: cited from earlier work
[5] = patients with low back pain and radiating pain

SMILES: Cc1ccc(C23CNCC2C3)cc1 (racemic) [Bicifadine HCl, (±)-1-(4-methylphenyl)-3-azabicyclo[3.1.0]hexane hydrochloride]
- relationship between bicifadine dose and AUC [1]: clear dose proportional relationship
- SPRID-6 and other derived analgesia scores versus placebo ([2]; 200 mg single dose): better than placebo on some measures
- SPRID-6 and other derived analgesia scores versus placebo ([2]; 400 mg single dose): statistically superior to placebo
- SPRID-6 and other derived analgesia scores versus placebo ([2]; 600 mg single dose): statistically superior to placebo
- drug levels associated with significant analgesic efficacy ([2]; acute dental pain): 500 to 1000 ng/mL
- minimally effective dose ([2]; acute dental pain): 200 mg
- plasma bicifadine levels associated with the greatest pain relief ([2]; acute dental pain): > 1000 ng/mL
- plasma drug levels not associated with significant analgesic effects ([2]; acute dental pain): ≤ 500 ng/mL
- Odds Ratio of Response (Pain Relief Rating of 3 or more) ([2]; for an increase of 500 ng/ml in bicifadine blood levels, GEE, p=0.006): 1.59
- PR score at plasma concentrations >1000 ng/ml relative to 0-500 ng/ml range ([2]; p<0.001, Hierarchical Linear Model): approximately 3 times
- therapeutic efficacy from pain relief data (VAS) ([3]; BID dosing, 4.5 month period, versus SOC): comparable to that of standard of care (SOC) treatment
- improved functional/activity results ([3]; BID dosing, versus SOC): comparable to those observed among SOC-treated subjects
- VAS pain scores compared to placebo ([3]; baseline RDQ score greater than 17): significantly reduced
- subjects with at least a 50% reduction in VAS scores, relative to placebo ([3]; baseline RDQ score greater than 17, hydrochloride): at least three times as many; also recorded: roughly three times the percentage
- percentage of subjects with 50% or greater reduction in RDQ scores, relative to placebo (less than 15%) ([3]; baseline RDQ>17, 400-800 mg/day): roughly twice this percentage
- disability scores on the RDQ versus placebo ([3]; baseline RDQ>17, 400-800 mg/day, hydrochloride): significant activity for reversing disabilities and enhancing functional/activity performance; also recorded: significantly decreased
- improvement in VAS pain score compared to placebo [3, 5]: 11 mm
- responsiveness to treatment versus patients with only localized back pain [3, 5]: two times more responsive
- efficacy in the spinal nerve ligation (Chung) model (neuropathic pain): effective
- period of analgesic efficacy for effectively treating acute pain (acute pain): up to 6 hours
- activity in the Randall-Selitto test (acute inflammatory pain): potent and active
- efficacy relative to codeine and tramadol [4]: as effective as codeine and tramadol

SMILES: COc1cccc(C2(O)CCCCC2CN(C)C)c1 (centres unmarked) [tramadol, reference compound]
- use of rescue medication versus placebo (time-to-rescue, Log-Rank) ([2]; 100 mg, P=0.0001): significantly less likely to use rescue medication
